In PubChem BioAssay (NCI):
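The compound was tested at five concentrations on cells cultured in 96-well plates, with a 48-hour exposure period. The concentration for full growth arrest is given as TGI.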

Key:
Experiment in all cases: NCI-60 cell line screen, 48 h
[1] = system: HT29 colon
[2] = system: MCF7 breast
[3] = system: OVCAR-8 ovarian
[4] = system: MOLT-4 leukemia
[5] = system: OVCAR-4 ovarian
[6] = system: SK-MEL-2 melanoma
[7] = system: OVCAR-3 ovarian
[8] = system: SK-MEL-5 melanoma
[9] = system: CCRF-CEM leukemia
[10] = system: MALME-3M melanoma
[11] = system: NCI-H226 lung
[12] = system: EKVX NSCLC
[13] = system: IGROV1 ovarian
[14] = system: K-562 leukemia
[15] = system: NCI-H460 lung

CSC1=N/C(=C\c2ccccc2)C(=O)N1CN1CCOCC1
TGI [1]: 78.5 µM | TGI [2]: > 100 µM | TGI [3]: > 100 µM | TGI [4]: > 100 µM | TGI [5]: 90.8 µM | TGI [6]: > 100 µM | TGI [7]: > 100 µM | TGI [8]: > 100 µM | TGI [9]: > 100 µM | TGI [10]: > 100 µM | TGI [11]: > 100 µM | TGI [12]: > 100 µM | TGI [13]: > 100 µM | TGI [14]: > 100 µM

O=C1C=Cc2c1csc2Br
TGI [1]: > 100 µM | TGI [2]: 95.9 µM | TGI [3]: > 100 µM | TGI [4]: 54.7 µM | TGI [15]: > 100 µM | TGI [5]: > 100 µM | TGI [6]: > 100 µM | TGI [7]: > 100 µM | TGI [8]: > 100 µM | TGI [9]: 45.8 µM | TGI [10]: > 100 µM | TGI [12]: > 100 µM | TGI [13]: > 100 µM | TGI [14]: 97.7 µM

O=[N+]([O-])c1ccc(OP(=O)(O)OCC2OC(CP(=O)(O)O)C(O)C2O)cc1 (stereo not drawn)
TGI [1]: > 100 µM | TGI [2]: > 100 µM | TGI [3]: > 100 µM | TGI [4]: > 100 µM | TGI [15]: > 100 µM | TGI [5]: > 100 µM | TGI [6]: > 100 µM | TGI [7]: > 100 µM | TGI [8]: > 100 µM | TGI [9]: > 100 µM | TGI [12]: > 100 µM | TGI [13]: > 100 µM | TGI [14]: > 100 µM

N#Cc1nc(-c2ccccc2O)oc1N
TGI [1]: > 100 µM | TGI [2]: > 100 µM | TGI [3]: > 100 µM | TGI [4]: > 100 µM | TGI [6]: > 100 µM | TGI [8]: > 100 µM | TGI [9]: > 100 µM | TGI [12]: > 100 µM | TGI [13]: > 100 µM | TGI [14]: > 100 µM

O=C(O)c1cccc(S(=O)(=O)NN2C(=O)CSC2c2ccccc2Cl)c1 (stereo not drawn)
TGI [1]: > 100 µM | TGI [2]: > 100 µM | TGI [3]: > 100 µM | TGI [4]: > 100 µM | TGI [15]: > 100 µM | TGI [6]: > 100 µM | TGI [7]: > 100 µM | TGI [8]: > 100 µM | TGI [9]: > 100 µM | TGI [10]: > 100 µM | TGI [11]: > 100 µM | TGI [12]: > 100 µM | TGI [13]: > 100 µM | TGI [14]: > 100 µM

COc1ccc(C(=O)/C=C/c2ccc(OCC#N)cc2)cc1OC
TGI [1]: 74.7 µM | TGI [2]: 16 µM | TGI [3]: > 100 µM | TGI [4]: 63.6 µM | TGI [15]: > 100 µM | TGI [5]: > 100 µM | TGI [7]: 49.1 µM | TGI [8]: 32.2 µM | TGI [9]: 31.3 µM | TGI [10]: 38.8 µM | TGI [11]: 37.9 µM | TGI [12]: 36 µM | TGI [13]: > 100 µM | TGI [14]: > 100 µM

NC(CCC(=O)NC(CSC(=O)N(O)c1ccc(Cl)cc1)C(=O)NCC(=O)O)C(=O)O (stereo not drawn)
TGI [1]: > 0.5 µM | TGI [2]: > 0.5 µM | TGI [3]: > 0.5 µM | TGI [4]: > 0.5 µM | TGI [15]: > 0.5 µM | TGI [5]: > 0.5 µM | TGI [6]: > 0.5 µM | TGI [7]: > 0.5 µM | TGI [8]: > 0.5 µM | TGI [9]: > 0.5 µM | TGI [11]: > 0.5 µM | TGI [12]: > 0.5 µM | TGI [13]: > 0.5 µM | TGI [14]: > 0.5 µM

c1csc(-c2ccc(-c3ccsc3)s2)c1
TGI [1]: > 100 µM | TGI [2]: > 100 µM | TGI [3]: > 100 µM | TGI [4]: > 100 µM | TGI [15]: > 100 µM | TGI [5]: > 100 µM | TGI [6]: > 100 µM | TGI [8]: > 100 µM | TGI [9]: > 100 µM | TGI [10]: > 100 µM | TGI [11]: > 100 µM | TGI [12]: > 100 µM | TGI [13]: > 100 µM | TGI [14]: > 100 µM

O=C(OCC(Cl)(Cl)Cl)N1CC[C@@H](C2CCCCC2)C1
TGI [2]: 45.5 µM | TGI [4]: 56.4 µM | TGI [15]: 43.8 µM | TGI [5]: 42.2 µM | TGI [6]: 33.1 µM | TGI [7]: 32.2 µM | TGI [8]: 36.6 µM | TGI [9]: 46.7 µM | TGI [12]: 51.7 µM | TGI [13]: > 100 µM | TGI [14]: 50.1 µM

C[N+](C)(C)CC(=O)N/N=C/c1oc(-c2cccc([N+](=O)[O-])c2)c(-c2cccc([N+](=O)[O-])c2)c1[N+](=O)[O-]
TGI [1]: > 100 µM | TGI [3]: > 100 µM | TGI [15]: > 100 µM | TGI [5]: > 100 µM | TGI [6]: > 100 µM | TGI [8]: > 100 µM | TGI [9]: > 100 µM | TGI [10]: > 100 µM | TGI [12]: > 100 µM | TGI [13]: > 100 µM

c1csc(-c2cscc2-c2cccs2)c1
TGI [1]: > 100 µM | TGI [2]: 49.5 µM | TGI [3]: > 100 µM | TGI [4]: > 100 µM | TGI [15]: > 100 µM | TGI [5]: > 100 µM | TGI [7]: 47.3 µM | TGI [8]: > 100 µM | TGI [9]: > 100 µM | TGI [11]: 65.4 µM | TGI [12]: > 100 µM | TGI [13]: > 100 µM | TGI [14]: > 100 µM

O=C(Nc1ccccc1)c1cc2c(cc1Cl)SC(NNCCO)=NS2(=O)=O
TGI [1]: > 100 µM | TGI [2]: > 100 µM | TGI [3]: > 100 µM | TGI [4]: > 100 µM | TGI [15]: > 100 µM | TGI [5]: > 100 µM | TGI [6]: > 100 µM | TGI [8]: > 100 µM | TGI [9]: > 100 µM | TGI [11]: > 100 µM | TGI [12]: > 100 µM | TGI [13]: > 100 µM | TGI [14]: > 100 µM

CC(C)CC(NC=O)C(=O)NC(Cc1ccccc1)NC(=O)CNC(=O)C(C)NC(=O)OC(C)(C)C (stereo not drawn)
TGI [1]: > 100 µM | TGI [2]: > 100 µM | TGI [3]: > 100 µM | TGI [4]: > 100 µM | TGI [15]: > 100 µM | TGI [5]: > 100 µM | TGI [7]: > 100 µM | TGI [8]: > 100 µM | TGI [10]: > 100 µM | TGI [11]: > 100 µM | TGI [12]: > 100 µM | TGI [13]: > 100 µM | TGI [14]: > 100 µM

Nc1nc(NNc2ccccc2F)cc(=O)[nH]1
TGI [1]: > 100 µM | TGI [2]: > 100 µM | TGI [3]: > 100 µM | TGI [4]: > 100 µM | TGI [15]: > 100 µM | TGI [5]: > 100 µM | TGI [7]: > 100 µM | TGI [8]: > 100 µM | TGI [9]: > 100 µM | TGI [10]: > 100 µM | TGI [11]: > 100 µM | TGI [12]: > 100 µM | TGI [13]: > 100 µM | TGI [14]: > 100 µM

COc1ccc(N2C(=O)C(C#N)=C(SC)C(C#N)C2=O)cc1 (stereo not drawn)
TGI [1]: > 100 µM | TGI [2]: > 100 µM | TGI [3]: > 100 µM | TGI [4]: > 100 µM | TGI [15]: > 100 µM | TGI [5]: > 100 µM | TGI [6]: > 100 µM | TGI [8]: > 100 µM | TGI [9]: > 100 µM | TGI [10]: > 100 µM | TGI [11]: > 100 µM | TGI [12]: > 100 µM | TGI [13]: > 100 µM | TGI [14]: > 100 µM

CC1=C(S(=O)c2ccc(C)cc2)CCC2(CCCCO2)O1 (stereo not drawn)
TGI [1]: > 100 µM | TGI [2]: > 100 µM | TGI [3]: > 100 µM | TGI [4]: > 100 µM | TGI [15]: > 100 µM | TGI [5]: > 100 µM | TGI [6]: > 100 µM | TGI [7]: > 100 µM | TGI [8]: > 100 µM | TGI [10]: > 100 µM | TGI [11]: > 100 µM | TGI [12]: > 100 µM | TGI [13]: > 100 µM | TGI [14]: > 100 µM

CC(=O)N1N=C(c2ccc3ccccc3c2O)CC1c1ccc(Cl)cc1Cl (stereo not drawn)
TGI [1]: > 100 µM | TGI [2]: > 100 µM | TGI [3]: > 100 µM | TGI [4]: > 100 µM | TGI [15]: > 100 µM | TGI [5]: > 100 µM | TGI [6]: > 100 µM | TGI [7]: > 100 µM | TGI [8]: > 100 µM | TGI [9]: > 100 µM | TGI [10]: > 100 µM | TGI [11]: > 100 µM | TGI [13]: > 100 µM | TGI [14]: > 100 µM
